This is an account of results in the METLIN SMRT retention time set (Domingo-Almenara et al. 2019).

Molecules are shown by their SMILES.

This series is described as follows: gradient 5% acetonitrile 3 min, to 50% in 2 min, to 85% in 15 min, held 3 min, 100 µL/min. Particulars: column: Zorbax Extend-C18 2.1 x 50 mm; eluents: water / acetonitrile, 0.1% formic acid. Put shortly: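 Pure standards were analyzed in mixtures of ~100 molecules using HPLC coupled to a quadrupole time-of-flight mass spectrometer, in both positive and negative ionization mode. Separation used a Zorbax Extend-C18 column (2.1 × 50 mm, 1.8 μm) at 100 μL/min, with water and acetonitrile each containing 0.1% formic acid. Dead and dwell volumes were 40 μL and 900 μL, and data were collected over 3 months. Retention time was read from computationally picked adduct peaks, each inspected manually.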
`O=S(=O)(c1cccnc1)N1CC(F)(F)C[C@H]1c1nc(C2CC2)no1` yielded an RP-LC retention time of 815 s. With `O=C(CCC[C@@H]1[C@H]2CCCN3CCC[C@@H](CN1C(=O)c1cccnc1)[C@@H]23)N1CCN(c2ncccn2)CC1` the figure was 578 s; with `COc1ccc(-c2nnc(COc3cccc(NC(=O)Cc4cccs4)c3)o2)cc1`, 906 s; with `CCOC(=O)COc1cc(-c2ccc(C)cc2)nc2ccc(NC(=O)C3CCC3)cc12`, 1060 s. With `CC(=O)N1c2ccc(S(=O)(=O)NCCOc3ccc(F)cc3)cc2CC1C` (stereo not given) the figure was 798 s.

`CCN1C(=O)C2CCCCN2c2ccc(C(=O)NCc3ccccc3)cc21` (stereo not given) came in with an RP-LC retention time of 908 s. With `CSc1ncn(-c2nc(NC(C)C)nc(NC(C)C)n2)n1` the figure was 875 s. With `Cc1cc(C)c2c(-n3cccc3)nn(CC(=O)NCCN(C)C)c2n1` the figure was 630 s. With `CCc1nnc(-c2ccc(NC(=O)c3cc4ccccc4o3)cc2)o1` the figure was 826 s; with `Clc1ccc(C2Cn3nnc(-c4nc(-c5cccc(Cl)c5)no4)c3CO2)cc1` (stereo not given), 1310 s; with `O=C(CCC1CCCC1)Nc1ccc(CC(=O)NC2CC2)cc1`, 738 s. The molecule `CCOC(=O)Cn1nc(-n2ccnc2)ccc1=O` displayed an RP-LC retention time of 503 s. With `COc1ccc(Cl)cc1S(=O)(=O)N1CCc2c(c(-c3nnc(-c4ccccc4)o3)nn2C)C1` the figure was 958 s; with `CC(C)(C)c1ccc(C(=O)N2CCc3nc[nH]c3C2)cc1`, 634 s.

In turn, `COc1ccc(-n2c(C)nc3ccc(NC(=O)C4CC4)cc3c2=O)cc1` yielded an RP-LC retention time of 683 s. As for `CC(C)N1C(=O)c2cccnc2Sc2cc(NC(=O)COc3ccccc3)ccc21`, the RP-LC retention time came out at 889 s. With `O=C(Nc1ccc(Cl)cc1)c1cccn1Cc1noc(C2CC2)n1` the figure was 1000 s; with `CCCn1cnc2ccc(-c3noc(Cc4cccs4)n3)cc21`, 750 s. With `CCc1ccccc1NS(=O)(=O)c1cc(-c2nc(C(C)(C)C)cs2)cs1` the figure was 1290 s; with `Cc1cc(C)n(CCNC(=O)c2c(F)cccc2F)n1`, 607 s.

The molecule `CCn1c(CCc2cccc(NS(=O)(=O)c3cnc[nH]3)c2)nc2ccccc21` displayed an RP-LC retention time of 524 s.

For the molecule `COc1ccc(NC(=O)c2noc3c2CCC3)cc1OC`, the RP-LC retention time was 811 s.

Regarding `Cc1ccc(Cn2nc3ccc(S(=O)(=O)N4CCOCC4)cn3c2=O)cc1`, the RP-LC retention time is 977 s. Molecule `CCCS(=O)(=O)N1CCCc2cc(NC(=O)Nc3cccc(OC)c3OC)ccc21` registered an RP-LC retention time of 908 s. With `O=C(CCc1conc1-c1ccc(F)cc1)NC1CCCCC1` the figure was 927 s; with `CC1CCN(c2nn(CC(=O)Nc3ccc4c(c3)CCC4)c(=O)c3ccccc23)CC1`, 1250 s. With `CC(=O)c1cccc(NC(=O)Cn2cccc2-c2nc(-c3ccccc3)cs2)c1` the figure was 1030 s; with `Cc1cc2nn(CC(=O)NCc3ccccc3)c(=O)n2c(-c2ccccc2)n1`, 753 s. Take `CCC(C)C(NC(=O)Cc1cccc(F)c1)C(=O)Nc1nc2ccccc2[nH]1` (stereo not given): the RP-LC retention time turned out to be 736 s.

With `COC1CCC12CCN(S(=O)(=O)c1ccc(C)c(Cl)c1)CC2` (stereo not given), the RP-LC retention time is 1160 s.

As for `O=C(NCc1ccccn1)C1CCCN(C(=O)NCc2cccs2)C1` (stereo not given), the RP-LC retention time is 550 s. With `CN1CCN(CCNC(=O)C2CN(S(=O)(=O)c3ccccc3)CC23CCCCC3)CC1` (stereo not given) the figure was 573 s.

The molecule `CCN1CCC(N(Cc2cccs2)C(=O)Nc2cccc(Br)c2)CC1` came in with an RP-LC retention time of 693 s.

On to `CCOc1ccc(NC(=O)Cc2csc3nc(-c4ccccc4)cn23)cc1`, for which the RP-LC retention time is 815 s. With `Cn1c(=O)n(CC(=O)N2CCOCC2)c(=O)c2cnc(-c3ccccc3)nc21` the figure was 767 s; with `CCC(=O)N1CCC(COc2ccc(C(=O)NC(C)C)cc2)CC1`, 719 s; with `O=C(NCc1cccc2ccccc12)NCc1nnnn1-c1ccccc1`, 751 s. With `CCOc1ccc(Cc2nc(-c3ccc4oc(C)nc4c3)no2)cc1OCC` the figure was 1040 s; with `Cc1cccc(OCC(=O)Nc2cccn3nc(C)nc23)c1`, 834 s. With `CC(=O)Nc1ccc(NC(=O)c2cc3sc(C)c(CN4CCCCC4)c3[nH]2)cc1` the figure was 609 s. With `Cc1cc(C)cc(C(=O)N2CCC3(CC2)NC(=O)c2ccccc2N3C)c1`, the RP-LC retention time is 804 s. With `O=S(=O)(Nc1ccc(F)cc1)c1ccccc1-c1nc(-c2ccccc2)no1` the figure was 1140 s; with `O=C(NCc1cc(-c2ccco2)on1)c1ncc(-c2ccccc2)o1`, 863 s. With `COCCN(Cc1cccs1)C(=O)CN1C[C@H]2C[C@H](C1)[C@H]1CCCC(=O)N1C2` the figure was 556 s. With `Cc1ccc(NS(=O)(=O)c2cc(-c3cc(C(F)(F)F)on3)cs2)c(Br)c1` the figure was 1160 s; with `CCOc1nc2ccccc2nc1N1CCCC(C(=O)Nc2cc(Cl)ccc2C)C1` (stereo not given), 1310 s; with `Cc1cc2[nH]c(C(=O)Nc3ccc(F)cc3Cl)c(CN3CCOCC3)c2s1`, 721 s. In the case of `CC12CC(NC(=O)N1c1ccc(C(=O)N3CCN(c4ccccn4)CC3)cc1)c1ccccc1O2` (stereo not given), the RP-LC retention time was found to be 599 s. As for `COCCN1C(=O)c2ccccc2C(C(=O)NCCCN2CCCCC2C)C1c1cccs1` (stereo not given), the RP-LC retention time was 624 s.

In the case of `COc1cc(=O)c(C(=O)N2CCC(C(N)=O)CC2)nn1-c1ccc(C)cc1`, the RP-LC retention time was 604 s. With `CCOc1ccccc1NC(=O)C1CCN(S(=O)(=O)c2ccc3[nH]c(=O)sc3c2)CC1` the figure was 870 s. As to `Cc1cc(C(=O)N2CC(F)(F)C[C@H]2c2nc(C)no2)on1`, the RP-LC retention time worked out at 723 s. `O=C(c1cc2ccccc2[nH]1)N1CCCC1` yielded an RP-LC retention time of 794 s. With `COc1cccc(NC(=O)Cn2c(=O)c(CCC(=O)NC3CCCC3)nc3ccccc32)c1` the figure was 825 s; with `Cc1ccc(-c2cc(C(=O)NC3CCCCC3)c(C)[nH]2)cc1C`, 1020 s. With `CCSc1nnc(-c2nn(C)c3c2CN(S(=O)(=O)c2ccc4c(c2)OCCO4)CC3)n1CC` the figure was 895 s; with `Cn1cc2c3c(cccc31)CN(C(=O)Nc1ccc(Br)cc1F)CC2`, 1000 s; with `CCCNC(=O)N1CCCCCCN(C)C(=O)CC1`, 662 s. On to `Cc1ccc(N2C(=O)C3N=NN(Cc4nc(-c5ccccc5C)no4)C3C2=O)cc1Cl` (stereo not given), for which the RP-LC retention time stood at 1140 s.

On to `O=C(NCCc1ccccc1)c1c(O)c2sccc2n(Cc2ccccc2)c1=O`, for which the RP-LC retention time is 1270 s.
